In US8106092B2, “Treatment of solid cancers” (priority 2004, dated 2012):

Experiments:
[1] = test system: B16 lung metastases; experiment: B16 lung metastasis model; assay type: in vivo, C57BL/6 mice
Protocol: FIG. 5 is a graphical representation showing the treatment of s.c. B16 tumors with PEP005 reduced growth B16 lung metastases. C57BL/6 mice (n=7) were injected with 10^6 B16 cells s.c. and 5×10^4 B16 cell i.v. on d−2. On dO the s.c. tumors had reached an average 21.8 mm^2+SE 2.4 and were cured with 25 μg of i.t. PEP005 formulated with PEG400. On d18 the mice were euthanazed and lung weights determined (PEP005). Control mice received only i.v. B16 and naïve mice received no tumors (n=6 per group).
The activity of PEP005-mediated cure of primary tumors was assessed in a more robust model using B16 tumors rather than B16-OVA tumors and where primary tumors and lung metastases were both established prior to PEP005 treatment. When the primary tumors had reached 21.8+SE 2.4 they were cured with i.t. PEP005 injection. […] After subtracting the weight of tumor free lungs (FIG. 5A, naïve, dotted line), this represented a reduction in lung tumor burden of over 50%.

[2] = test system: CT26 colon carcinoma cells; experiment: PEP005-mediated cure of primaries plus peptide vaccine, CT26 colon carcinoma model; assay type: in vivo, Balb/c mice; conditions: Log rank p=0.011 (PEP005) and =0.013 (Vaccine)
Protocol: FIG. 14 is a graphical representation combining PEP005-mediated cure of primaries and cancer vaccination in the CT26 colon carcinoma model. (A) on d−3 […] mice were inoculated with 10^5 CT26 cells on the left flank (primary tumor) and 5×10^3 CT26 cells on the right flank (secondary tumor). On dO the primary CT26 tumors, which has reached 16.8+SD 3.2 mm^2 were cured with i.t. injections of 25 μg of PEP005 formulated in PEG400. On d3 and d10 mice received peptide vaccine containing the SPSYVYHQF [SEQ ID NO:5] epitope (n=9, PEP005+Vaccine). […] A third group was inoculated with secondary tumors only and received the vaccine (n=11, Vaccine), and the control group was given only secondary tumors and received no treatment (n=12, Controls). Animals were culled when the secondary tumors reached 100 mm^2.
CT26 colon carcinoma cells [CRL-2638] (Ali et al, 2002 supra) were grown s.c. in 6-10 week old female Balb/c mice.
The cancer vaccine comprised the gp70 A-1 peptide epitope SPSYVYHQF [SEQ ID NO:5] […]
To determine whether the effects seen in the B16 models could be repeated in a different tumor model and using a different cancer vaccine, four groups of Balb/c mice were established using the CT26 colon carcinoma model (Ali et al, J Immunol 168:3512-3519, 2002). […] The growth of secondary tumors was monitored as above.

C/C=C(/C)C(=O)O[C@H]1C(C)=C[C@]23C(=O)[C@@H](C=C(CO)[C@@H](O)[C@]12O)[C@H]1[C@@H](C[C@H]3C)C1(C)C [PEP005, ingenol-3-angelate]
reduction in lung tumor burden ([1]; after subtracting the weight of tumor free lungs, d18): over 50% | lung weights on d18 compared to controls ([1]; s.c. B16 primaries cured with i.t. PEP005, lung metastases established before treatment, p=0.023): lighter | growth of secondaries vs no treatment controls [2]: significantly reduced the growth of secondaries
